Experimental findings from BindingDB's records for PubMed 8474008 (Virginia Commonwealth University, 1993) are described below.

Usually Ki stands for the equilibrium dissociation constant of an inhibitor or competing ligand from its target. Read a high Ki as weaker binding.

Where “and” joins values, the source holds several entries; their conditions need not be identical. Equal entries are not always repeated.

For the test, the target named is Cannabinoid receptor 1 (Rattus norvegicus, UniProt P20272).
Sequence of Cannabinoid receptor 1 (P20272 whole entry): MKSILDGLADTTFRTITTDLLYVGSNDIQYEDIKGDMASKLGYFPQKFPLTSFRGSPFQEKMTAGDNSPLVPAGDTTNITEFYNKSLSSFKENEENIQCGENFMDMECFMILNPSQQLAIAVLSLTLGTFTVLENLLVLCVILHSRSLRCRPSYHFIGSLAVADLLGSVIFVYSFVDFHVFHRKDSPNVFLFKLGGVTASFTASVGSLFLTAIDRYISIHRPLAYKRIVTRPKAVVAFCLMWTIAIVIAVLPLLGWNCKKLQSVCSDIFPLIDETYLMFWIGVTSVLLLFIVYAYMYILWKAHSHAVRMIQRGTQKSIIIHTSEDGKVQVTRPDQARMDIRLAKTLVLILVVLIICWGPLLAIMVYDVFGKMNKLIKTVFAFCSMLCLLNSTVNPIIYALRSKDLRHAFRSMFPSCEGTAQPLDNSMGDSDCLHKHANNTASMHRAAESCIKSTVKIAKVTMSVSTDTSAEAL
`CCCCC[C@@H](C)[C@H](C)c1cc(O)c2c(c1)OC(C)(C)[C@@H]1CC=C(C)C[C@@H]21` came in with a Ki of 1.59 nM.

For the compound `CCCCCCC(C)(C)c1cc(O)c2c(c1)OC(C)(C)[C@@H]1CCC(CO)=CC21` (stereo partly specified) [(3-(1,1-Dimethyl-heptyl)-9-hydroxymethyl-6,6-dimethyl-6a,7,8,10a-tetrahydro-6H-benzo[c]chromen-1-ol (HU210)], the affinity corresponds to a Ki of 126 nM.

Regarding `CCCCCCC(C)(C)c1cc(O)c2c(c1)OC(C)(C)[C@@H]1CCC(=O)C[C@@H]21` [(6aR,10aR)-3-(1,1-Dimethyl-heptyl)-1-hydroxy-6,6-dimethyl-6,6a,7,8,10,10a-hexahydro-benzo[c]chromen-9-one], the Ki stood at 22.3 nM.

As for `CCCC(C)(C)c1ccc([C@H]2CCC[C@@H](O)C2)c(O)c1` [Bicyclic analogs III], the affinity, expressed as Ki, was 3760 nM.

`CCC(C)(C)c1ccc([C@H]2CCC[C@@H](O)C2)c(O)c1` [Bicyclic analogs II] returned a Ki greater than 10000 nM.

On to `CCCCC(C)(C)c1ccc([C@H]2CCC[C@@H](O)C2)c(O)c1` [Bicyclic analogs IV], for which the affinity, expressed as Ki, was 9.54 nM.

`CCCCCCCCCC(C)(C)c1ccc([C@H]2CCC[C@@H](O)C2)c(O)c1` [Bicyclic analogs IX] came in with a Ki of 163 nM.

The compound `CC(C)(C)c1ccc([C@H]2CCC[C@@H](O)C2)c(O)c1` [Bicyclic analogs I] registered a Ki greater than 10000 nM.

The compound `CCCCCCCCC(C)(C)c1ccc([C@H]2CCC[C@@H](O)C2)c(O)c1` [Bicyclic analogs VIII] yielded a Ki of 28.5 nM.

With `CCCCCCCC(C)(C)c1ccc([C@H]2CCC[C@@H](O)C2)c(O)c1` [Bicyclic analogs VII], affinity was put at a Ki of 4.73 nM.

Turning to `CCCCCC(C)(C)c1ccc([C@H]2CCC[C@@H](O)C2)c(O)c1` [Bicyclic analogs V], the affinity corresponds to a Ki of 126 nM.

With `OCCC[C@@H]1CC[C@@H](O)C[C@H]1c1ccccc1O` [Bicyclic analogs XIII], the Ki is greater than 10000 nM.

For `CCCCCCC(C)(C)c1ccc([C@@H]2C[C@H](O)CC[C@H]2C)c(O)c1` [Bicyclic analogs XI], the Ki is 6.15 nM and 7.7 nM.

`CCCCCCC(C)(C)c1ccc([C@@H]2C[C@H](O)CC[C@H]2CCCCO)c(O)c1` [Bicyclic analogs XVI] displayed a Ki of 1.55 nM.

Consider `CCCCCCCCCCC(C)(C)c1ccc([C@H]2CCC[C@@H](O)C2)c(O)c1` [Bicyclic analogs X], for which the Ki came out at 381 nM.

For the compound `CCCCCCC(C)(C)c1ccc([C@H]2CCC[C@@H](O)C2)c(O)c1` [CP-47,497], the affinity, expressed as Ki, was 735 nM.

Turning to `CCCCCC(C)C(C)c1cc(O)c2c(c1)OC(C)(C)C1=C2CC(C)CC1` (stereo unspecified) [DMHP, 1', 2'], affinity was put at a Ki of 1.56 nM.

As for `CCCCCc1cc(O)c2c(c1)OC(C)(C)C1CCC(C)(O)CC21` (stereo unspecified) [NSC_169742], the Ki was 124 nM and 171 nM.

As to `C=C(C)C1CCC(C)=CC1c1c(O)cc(O)cc1CCCCC` (stereo unspecified) [NSC_3060519], the Ki is greater than 10000 nM.

Regarding `CCCCCc1cc(OCCCN)c2c(c1)OC(C)(C)[C@@H]1CCC(C)=C[C@@H]21` [THC, 1-O-(3-Aminopropyl)], the Ki was greater than 10000 nM.

As to `CCCCCc1cc(OCCCCN)c2c(c1)OC(C)(C)[C@@H]1CCC(C)=C[C@@H]21` [THC, 1-O-(4-Aminobutyl)], the Ki is greater than 10000 nM.

In turn, `CCCCCc1cc(OCCCCCCN)c2c(c1)OC(C)(C)[C@@H]1CCC(C)=C[C@@H]21` [THC, 1-O-(6-Aminohexyl)] had a Ki of 1730 nM.

In the case of `CCCCCc1cc(OC(N)=O)c2c(c1)OC(C)(C)[C@@H]1CCC(C)=C[C@@H]21` [THC, 1-O-Carbamoyl], the Ki was greater than 10000 nM.

With `C=C1CC[C@@H]2[C@@H](C1)c1c(OC)cc(CCC(CC)CCC)cc1OC2(C)C` (stereo partly specified) [THC, 1-O-Methyl-3-(norpentyl)-3-propyl], the Ki was greater than 10000 nM.

As for `CCCCCCC(C)(C)c1cc(OCc2ccc(-c3ccccc3)cc2)c2c(c1)OC(C)(C)[C@@H]1CCC(CO)=C[C@@H]21` [THC, 1-O-biphenylmethyl-delta 8], the Ki is greater than 10000 nM.

On to `C=C1CC[C@@H]2[C@@H](C1)c1c(OC)cc(CCCCC)cc1OC2(C)C` [THC, 1-O-methyl-delta 9,11], for which the Ki was found to be 827 nM.

For the compound `CCCCCc1cc(OC)c2c(c1)OC(C)(C)[C@@H]1CCC(C)=C[C@@H]21` [THC, 1-O-methyl-delta 9], the Ki is greater than 10000 nM.

The compound `C=C1CC[C@@H]2[C@@H](C1)c1c(O)cc(CCC(CC)CCC)cc1OC2(C)C` (stereo partly specified) [THC, 3-(Norpentyl)-3-propyl] yielded a Ki of 968 nM.

Consider `CC1=C[C@H]2c3c(O)cc(CCCCCBr)cc3OC(C)(C)[C@@H]2CC1` [THC, 5'-Br], for which the Ki is 7.63 nM.

In the case of `CC1=C[C@H]2c3c(O)cc(CCCCC(F)(F)F)cc3OC(C)(C)[C@@H]2CC1` [THC, 5'-F3], the affinity, expressed as Ki, was 19.9 nM.

Consider `CC1=C[C@H]2c3c(O)cc(CCCCCF)cc3OC(C)(C)[C@@H]2CC1` [THC, 5'-F], for which affinity was put at a Ki of 57 nM.

As to `CC1=C[C@H]2c3c(O)cc(CCCCCI)cc3OC(C)(C)[C@@H]2CC1` [THC, 5'-I], affinity was put at a Ki of 7.77 nM.

`CC1=C[C@H]2c3c(O)cc(CCCCCO)cc3OC(C)(C)[C@@H]2CC1` [THC, 5'-OH] yielded a Ki of 87.6 nM.

In turn, `CCCCCc1cc(O)c2c(c1)OC(C)(C)[C@@H]1C[C@@H](O)C(C)=C[C@@H]21` [THC, 8 beta-OH] showed a Ki of 820 nM.

As for `CCCCCc1cc(O)c2c(c1)OC(C)(C)[C@@H]1CCC(C(=O)O)=C[C@@H]21` [THC, 9-Nor-9-carboxy-delta 9], the Ki is greater than 10000 nM.

Consider `CCCCCc1cc(OC)c2c(c1)OC(C)(C)[C@@H]1CCC(CF)=C[C@@H]21` [THC, 11-F], for which the affinity corresponds to a Ki of 107 nM.

`CC1(C)Oc2cc(CCCCC[N+](C)(C)C)cc(O)c2[C@@H]2C=C(CO)CC[C@H]21` [THC, 11-OH-5'-TMA] registered a Ki of 2110 nM.

`CCCCCc1cc(O)c2c(c1)OC(C)(C)[C@@H]1CCC(CO)=C[C@@H]21` [THC, 11-OH-delta 9]: affinity was put at a Ki of 38.4 nM.

Consider `CCCCCc1cc(OC(C)C)c2c(c1)OC(C)(C)[C@@H]1CCC(C)=C[C@@H]21` [THC, O, 2-propano], for which the Ki was greater than 10000 nM.

Take `CCCCCc1cc(O)c2c(c1)OC(C)(C)[C@@H]1CCC(C)=C(CO)[C@@H]21` [THC, O, 10-Methano]: the Ki was greater than 10000 nM.

`CCCCCCC(C)(C)c1cc(O)c2c(c1)OC(C)(C)[C@H]1CCC(CO)=C[C@H]21` [THC-DMH, (-)-11-OH] yielded a Ki of 0.72 nM.
